Reference: patent US20260356957A1, “METHODS FOR TREATMENT OF NON-SMALL CELL LUNG CANCER (NSCLC)” (Janssen Biotech, Inc., priority 2023, published 2026)
Marks after values point to notes of the source that are not given here.

Experiment: MARIPOSA Phase 3, adverse events
Assay type: in vivo, human
From the text: • 1. […] Incidence and Severity of Adverse Events (AEs) [Time Frame: Up to approximately 60 months]. Incidence and severity of treatment emergent adverse events (TEAEs) will be reported. Any adverse event occurring at or after the initial administration of study treatment through the day of last dose plus 30 days, or until the start of subsequent anticancer therapy (if earlier), is considered to be treatment emergent. • 8. Number of Participants with Clinical Laboratory Abnormalities [Time Frame: Up to approximately 60 months]. Number of participants with clinical laboratory abnormalities (serum chemistry, hematology, blood coagulation, and urine samples) will be reported. • 9. Number of Participants with Vital Signs Abnormalities [Time Frame: Up to approximately 60 months]. Number of participants with vital signs abnormalities (temperature, heart rate, respiratory rate, oxygen saturation, blood pressure) will be reported. • 10. Number of Participants with Physical Examination Abnormalities [Time Frame: Up to approximately 60 months]. Number of participants with physical examination abnormalities will be reported. • 11. […] The NSCLC-SAQ contains 7 items that assess cough, pain, dyspnea, fatigue, and poor appetite over a 7-day recall period. Each multi-item scale and individual item will be summarized using count and percent by visit. • 15. […] EORTC-QLQ-C30 is a core 30-item questionnaire for evaluating the health-related quality of life (HRQOL) of participants participating in cancer clinical studies. • 16.

[1] = AE of interest, grouped preferred terms
[2] = Grade 5 AE, deemed treatment-related
[3] = TEAE leading to discontinuations of any study agent
[4] = TEAE leading to dose reductions of any study agent

C=CC(=O)Nc1cc(Nc2nccc(-c3cn(C)c4ccccc34)n2)c(OC)cc1N(C)CCN(C)C [Osimertinib]
Venous thromboembolism, No. of days to first onset, median (range) (AE of interest): 194 (10-675) days
Any venous thromboembolism event, No. of patients (%) [1]: 39 (9) no. (%)
Rash, Duration of event, median no. of days (range) [1]: 51 (1-625) days
Rash, No. of days to first onset, median (range) [1]: 29 (1-799) days
Rash, No. of events, any grade [1]: 238
Rash, No. of patients (%) [1]: 210 (49) no. (%)
Anemia (AE, All grades): 91 (21) no. (%)
Asthenia (AE, All grades): 46 (11) no. (%)
COVID-19 (AE, All grades): 103 (24) no. (%)
Constipation (AE, All grades): 55 (13) no. (%)
Cough (AE, All grades): 88 (21) no. (%)
Decreased appetite (AE, All grades): 76 (18) no. (%)
Dermatitis acneiform (AE, All grades): 55 (13) no. (%)
Diarrhea (AE, All grades): 190 (44) no. (%)
Dry skin (AE, All grades): 60 (14) no. (%)
Dyspnea (AE, All grades): 68 (16) no. (%)
Fatigue (AE, All grades): 42 (10) no. (%)
Hypoalbuminemia (AE, All grades): 26 (6) no. (%)
Hypocalcemia (AE, All grades): 35 (8) no. (%)
Increased alanine aminotransferase (AE, All grades): 57 (13) no. (%)
Increased aspartate aminotransferase (AE, All grades): 58 (14) no. (%)
Infusion-related reaction (AE, All grades): 0 no. (%)
Leukopenia (AE, All grades): 66 (15) no. (%)
Muscle spasms (AE, All grades): 32 (7) no. (%)
Nausea (AE, All grades): 58 (14) no. (%)
Pain in extremity (AE, All grades): 22 (5) no. (%)
Paronychia (AE, All grades): 121 (28) no. (%)
Peripheral edema (AE, All grades): 24 (6) no. (%)
Pruritus (AE, All grades): 73 (17) no. (%)
Pulmonary embolism (AE, All grades): 20 (5) no. (%)
Rash (AE, All grades): 131 (31) no. (%)
Stomatitis (AE, All grades): 90 (21) no. (%)
Thrombocytopenia (AE, All grades): 84 (20) no. (%)
Anemia (AE, Grade ≥3): 7 (2) no. (%)
Asthenia (AE, Grade ≥3): 4 (1) no. (%)
COVID-19 (AE, Grade ≥3): 9 (2) no. (%)
Constipation (AE, Grade ≥3): 0 no. (%)
Cough (AE, Grade ≥3): 0 no. (%)
Decreased appetite (AE, Grade ≥3): 6 (1) no. (%)
Dermatitis acneiform (AE, Grade ≥3): 0 no. (%)
Diarrhea (AE, Grade ≥3): 3 (1) no. (%)
Dry skin (AE, Grade ≥3): 1 (0.2) no. (%)
Dyspnea (AE, Grade ≥3): 17 (4) no. (%)
Fatigue (AE, Grade ≥3): 4 (1) no. (%)
Hypoalbuminemia (AE, Grade ≥3): 0 no. (%)
Hypocalcemia (AE, Grade ≥3): 0 no. (%)
Increased alanine aminotransferase (AE, Grade ≥3): 8 (2) no. (%)
Increased aspartate aminotransferase (AE, Grade ≥3): 5 (1) no. (%)
Infusion-related reaction (AE, Grade ≥3): 0 no. (%)
Leukopenia (AE, Grade ≥3): 0 no. (%)
Muscle spasms (AE, Grade ≥3): 0 no. (%)
Nausea (AE, Grade ≥3): 1 (0.2) no. (%)
Pain in extremity (AE, Grade ≥3): 0 no. (%)
Paronychia (AE, Grade ≥3): 2 (0.5) no. (%)
Peripheral edema (AE, Grade ≥3): 0 no. (%)
Pruritus (AE, Grade ≥3): 1 (0.2) no. (%)
Pulmonary embolism (AE, Grade ≥3): 10 (2) no. (%)
Rash (AE, Grade ≥3): 3 (1) no. (%)
Stomatitis (AE, Grade ≥3): 1 (0.2) no. (%)
Thrombocytopenia (AE, Grade ≥3): 5 (1) no. (%)
Acinetobacter sepsis (Grade 5 AE): 0 no. (%)
Acute respiratory distress syndrome (Grade 5 AE): 0 no. (%)
Arteriosclerosis coronary artery (Grade 5 AE): 0 no. (%)
COVID-19 (Grade 5 AE): 3 (1) no. (%)
COVID-19 pneumonia (Grade 5 AE): 0 no. (%)
Cardiac failure (Grade 5 AE): 1 (0.2) no. (%)
Cardiopulmonary failure (Grade 5 AE): 0 no. (%)
Cerebral hemorrhage (Grade 5 AE): 1 (0.2) no. (%)
Cerebral infarction (Grade 5 AE): 0 no. (%)
Cerebrovascular accident (Grade 5 AE): 1 (0.2) no. (%)
Circulatory collapse (Grade 5 AE): 0 no. (%)
Death (Grade 5 AE): 2 (0.5) no. (%)
Dyspnea (Grade 5 AE): 3 (1) no. (%)
Hemoptysis (Grade 5 AE): 1 (0.2) no. (%)
Ischemic cerebral infarction (Grade 5 AE): 0 no. (%)
Ketoacidosis (Grade 5 AE): 1 (0.2) no. (%)
Lower respiratory tract infection (Grade 5 AE): 1 (0.2) no. (%)
Metabolic acidosis (Grade 5 AE): 1 (0.2) no. (%)
Myocardial infarction (Grade 5 AE): 0 no. (%)
Myocardial rupture (Grade 5 AE): 0 no. (%)
Pericardial effusion (Grade 5 AE): 1 (0.2) no. (%)
Pleural effusion (Grade 5 AE): 1 (0.2) no. (%)
Pneumonia (Grade 5 AE): 4 (1) no. (%)
Pneumonia aspiration (Grade 5 AE): 1 (0.2) no. (%)
Pulmonary embolism (Grade 5 AE): 2 (0.5) no. (%)
Respiratory failure (Grade 5 AE): 2 (0.5) no. (%)
Respiratory tract infection (Grade 5 AE): 1 (0.2) no. (%)
Sepsis (Grade 5 AE): 1 (0.2) no. (%)
Septic shock (Grade 5 AE): 1 (0.2) no. (%)
Sudden death (Grade 5 AE): 1 (0.2) no. (%)
Urosepsis (Grade 5 AE): 0 no. (%)
Coronary artery disease [2]: 0 no. (%)
Interstitial lung disease [2]: 2 (0.5)§ no. (%)
Pneumonitis [2]: 0 no. (%)
Asthenia [3]: 1 (0.2) no. (%)
Dermatitis acneiform [3]: 0 no. (%)
Hypoalbuminemia [3]: 0 no. (%)
Infusion related reaction [3]: 0 no. (%)
Interstitial lung disease [3]: 4 (1) no. (%)
Paronychia [3]: 0 no. (%)
Peripheral edema [3]: 0 no. (%)
Pneumonia [3]: 3 (1) no. (%)
Pneumonitis [3]: 7 (2) no. (%)
Pulmonary embolism [3]: 2 (0.5) no. (%)
Rash [3]: 0 no. (%)
Dermatitis acneiform [4]: 0 no. (%)
Folliculitis [4]: 0 no. (%)
Hypoalbuminemia [4]: 0 no. (%)
Increased alanine aminotransferase [4]: 0 no. (%)
Increased aspartate aminotransferase [4]: 0 no. (%)
Mucosal inflammation [4]: 0 no. (%)
Neuropathy peripheral [4]: 0 no. (%)
Paresthesia [4]: 0 no. (%)
Paronychia [4]: 1 (0.2) no. (%)
Peripheral edema [4]: 0 no. (%)
Peripheral sensory neuropathy [4]: 0 no. (%)
Rash [4]: 2 (0.5) no. (%)
Rash maculo-papular [4]: 0 no. (%)
Rash pustular [4]: 0 no. (%)
